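Growth conditions: 96-well plates. Treatment: test compound, 48 hours, 5 concentrations. Analysis: linear interpolation between bracketing concentrations; unreached endpoints set to highest concentration. Abbreviation: GI50, concentration required for 50% inhibition of growth.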 The source made the active and inactive calls. Cut-off read from the data, not from the text of the source: active = GI50 up to about 1.1 µM and inactive = higher.
Legend:
Assay in all cases: DTP human tumour cell line panel, 48 h
[1] = test system: A498
[2] = test system: A549
[3] = test system: HOP-92
[4] = test system: HT-29
[5] = test system: M14
[6] = test system: MCF7
[7] = test system: MDA-MB-435
[8] = test system: MDA-N
[9] = test system: NCI-H226
[10] = test system: NCI-H23
[11] = test system: PC-3
[12] = test system: SK-MEL-28
[13] = test system: SK-OV-3
[14] = test system: SR
[15] = test system: TK-10
[16] = test system: UACC-62
[17] = test system: UO-31
[18] = test system: HCC 2998
[19] = test system: KM12

Row | Compound | GI50 [1] | GI50 [2] | GI50 [3] | GI50 [4] | GI50 [5] | GI50 [6] | GI50 [7] | GI50 [8] | GI50 [9] | GI50 [10] | GI50 [11] | GI50 [12] | GI50 [13] | GI50 [14] | GI50 [15] | GI50 [16] | GI50 [17] | GI50 [18] | GI50 [19]
1 | CN(C)/C=N\c1cccc2cnccc12 | > 100 µM (inactive) | > 100 µM (inactive) | > 100 µM (inactive) | > 100 µM (inactive) | > 100 µM (inactive) | > 100 µM (inactive) | > 100 µM (inactive) | > 100 µM (inactive) | > 100 µM (inactive) | > 100 µM (inactive) | > 100 µM (inactive) | > 100 µM (inactive) | > 100 µM (inactive) | > 100 µM (inactive) | > 100 µM (inactive) | > 100 µM (inactive) | > 100 µM (inactive) | – | –
2 | COc1ccc(-c2oc3ccc(C)cc3c(=O)c2O)cc1 | > 100 µM (inactive) | > 100 µM (inactive) | > 100 µM (inactive) | > 100 µM (inactive) | > 100 µM (inactive) | > 100 µM (inactive) | > 100 µM (inactive) | > 100 µM (inactive) | > 100 µM (inactive) | > 100 µM (inactive) | > 100 µM (inactive) | > 100 µM (inactive) | > 100 µM (inactive) | – | 32.1 µM (inactive) | > 100 µM (inactive) | > 100 µM (inactive) | > 100 µM (inactive) | > 100 µM (inactive)
3 | CCOC(=O)c1cc(C(O)P2(=O)N(CC(C)(C)C)[C@@H]3CCCC[C@H]3N2CC(C)(C)C)cn1C(=O)OC(C)(C)C (stereo partly specified) | 23.9 µM (inactive) | 15.7 µM (inactive) | – | 13.8 µM (inactive) | 16.2 µM (inactive) | 18.7 µM (inactive) | 13.9 µM (inactive) | 14.8 µM (inactive) | 20.6 µM (inactive) | 24.3 µM (inactive) | 15.9 µM (inactive) | 16.6 µM (inactive) | 20 µM (inactive) | 10.2 µM (inactive) | 22.6 µM (inactive) | 13.7 µM (inactive) | 15.3 µM (inactive) | 16.2 µM (inactive) | 14.8 µM (inactive)
4 | Cc1ccc(Nc2n[nH]c(=S)s2)cc1C | 58.7 µM (inactive) | 79.4 µM (inactive) | > 100 µM (inactive) | 57.4 µM (inactive) | > 100 µM (inactive) | 90.4 µM (inactive) | 53.5 µM (inactive) | 40.6 µM (inactive) | – | > 100 µM (inactive) | > 100 µM (inactive) | 57.9 µM (inactive) | > 100 µM (inactive) | – | > 100 µM (inactive) | > 100 µM (inactive) | > 100 µM (inactive) | 70.6 µM (inactive) | 78.5 µM (inactive)
5 | CCOC(=O)Cc1nn2c(=O)cc(C)nc2s1 | – | > 100 µM (inactive) | > 100 µM (inactive) | > 100 µM (inactive) | > 100 µM (inactive) | > 100 µM (inactive) | > 100 µM (inactive) | > 100 µM (inactive) | > 100 µM (inactive) | > 100 µM (inactive) | > 100 µM (inactive) | > 100 µM (inactive) | > 100 µM (inactive) | > 100 µM (inactive) | > 100 µM (inactive) | > 100 µM (inactive) | > 100 µM (inactive) | > 100 µM (inactive) | > 100 µM (inactive)
6 | CC(=O)Oc1c(C)cc(-c2cc(C)c(OC(C)=O)c(C)c2)cc1C | – | 42.4 µM (inactive) | 36.3 µM (inactive) | 45.4 µM (inactive) | 31.1 µM (inactive) | > 100 µM (inactive) | 3.05 µM (inactive) | 4.98 µM (inactive) | 29.7 µM (inactive) | 15.4 µM (inactive) | 14.1 µM (inactive) | 27.6 µM (inactive) | 19.5 µM (inactive) | 75.2 µM (inactive) | 30.5 µM (inactive) | 23 µM (inactive) | 26.9 µM (inactive) | – | 17.9 µM (inactive)
7 | CCN(CC)CCC(=O)Nc1ccc2sc3ccccc3c(=O)c2n1 | – | 17.3 µM (inactive) | 0.02 µM (active) | 36.7 µM (inactive) | 13.8 µM (inactive) | 13.3 µM (inactive) | 13.1 µM (inactive) | 14.1 µM (inactive) | – | 17.8 µM (inactive) | 15.4 µM (inactive) | 16.7 µM (inactive) | 20.6 µM (inactive) | 15.9 µM (inactive) | 18 µM (inactive) | 17.7 µM (inactive) | 10.4 µM (inactive) | 19.7 µM (inactive) | 16.3 µM (inactive)
8 | COc1cc2c(cc1OCCCCN1C(=O)c3cccc4cccc(c34)C1=O)N=C[C@@H]1CCCN1C2=O | 7.66 µM (inactive) | 5.68 µM (inactive) | 6.18 µM (inactive) | 5.73 µM (inactive) | 5.56 µM (inactive) | 1.69 µM (inactive) | 3.83 µM (inactive) | 2.31 µM (inactive) | 8.36 µM (inactive) | 3.74 µM (inactive) | 5.27 µM (inactive) | 11.7 µM (inactive) | 9.48 µM (inactive) | – | 2.47 µM (inactive) | 3.47 µM (inactive) | 1.68 µM (inactive) | 6.97 µM (inactive) | 3.57 µM (inactive)
9 | COc1ccc(-c2cc3c(nn2)-c2ccccc2C3=O)cc1 | > 10 µM (inactive) | > 10 µM (inactive) | > 10 µM (inactive) | > 10 µM (inactive) | > 10 µM (inactive) | 8.93 µM (inactive) | > 10 µM (inactive) | > 10 µM (inactive) | > 10 µM (inactive) | > 10 µM (inactive) | > 10 µM (inactive) | > 10 µM (inactive) | > 10 µM (inactive) | – | > 10 µM (inactive) | > 10 µM (inactive) | > 10 µM (inactive) | > 10 µM (inactive) | > 10 µM (inactive)
10 | CCO[C@@H]1CCC([S+]([O-])c2ccc(C)cc2)=CO1 (stereo partly specified) | > 100 µM (inactive) | – | – | > 100 µM (inactive) | – | > 100 µM (inactive) | > 100 µM (inactive) | > 100 µM (inactive) | > 100 µM (inactive) | > 100 µM (inactive) | > 100 µM (inactive) | > 100 µM (inactive) | – | 60.7 µM (inactive) | > 100 µM (inactive) | > 100 µM (inactive) | > 100 µM (inactive) | > 100 µM (inactive) | 34.2 µM (inactive)
11 | Cc1ccc(NC(=O)c2cc(S(=O)(=O)N3CCNNC3=O)c(S)cc2Cl)cc1 | – | > 100 µM (inactive) | 41.3 µM (inactive) | – | > 100 µM (inactive) | > 100 µM (inactive) | > 100 µM (inactive) | > 100 µM (inactive) | > 100 µM (inactive) | – | > 100 µM (inactive) | > 100 µM (inactive) | – | > 100 µM (inactive) | 93.8 µM (inactive) | > 100 µM (inactive) | > 100 µM (inactive) | > 100 µM (inactive) | > 100 µM (inactive)
12 | C[n+]1c(-c2ccccc2)cc2/c(=C\c3ccccc3)c3ccccc3n21 | 6.32 µM (inactive) | 3.96 µM (inactive) | 1.69 µM (inactive) | 1.06 µM (active) | 1.27 µM (inactive) | 1.34 µM (inactive) | 0.726 µM (active) | 0.948 µM (active) | 0.418 µM (active) | 2.68 µM (inactive) | 0.918 µM (active) | 0.871 µM (active) | 4.14 µM (inactive) | – | 2.72 µM (inactive) | 1.3 µM (inactive) | 2.95 µM (inactive) | 3.84 µM (inactive) | 0.738 µM (active)

From ChEMBL document CHEMBL1201862, “PubChem BioAssay data set” (2004)
